# Source: US20180312542A1, “ENDOSOMAL ESCAPE PEPTIDES” (priority 2015, published 2018)
# Key:
# BSR.LNL.tdTomato cells [1] = experiment: Cre delivery assay of expressed fusion proteins (tdTomato, flow cytometry); assay type: cell-based, hamster; details: for overall recombination efficiency versus aurein 1.2: variant fused to +36 GFP-Cre, 250 nM; for recombination signal above that of +36 GFP-Cre: 250 nM expressed fusion protein; for recombination levels higher than that of +36 GFP-Cre alone: 1 μM expressed fusion protein
# Description: FIGS. 3A-3B. Efficacy and toxicity of recombinant expression fusions of aurein 1.2 (“E”) and citropin 1.3 (“U”). […] The percentage of tdTomato positive cells was determined by flow cytometry. Protein fusions were delivered at 125 nM, 250 nM, 500 nM, and 1 μM. (FIG. 3B) Toxicity of aurein 1.2 and citropin 1.3 as determined by CellTiterGlo (Promega) assay. Protein fusions were delivered at 125 nM, 250 nM, 500 nM, and 1 μM. […] Cells were treated with 250 nM protein for 4 hours in serum-free media. Cells were washed and supplanted with full DMEM and incubated for 48 hours. Error bars represent the standard deviation of three independent biological replicates.
# (§1) FIGS. 4A-4B. Activity and cytotoxicity of aurein 1.2 variants fused to +36 GFP-Cre. (FIG. 4A) The percentage of tdTomato positive cells was determined by flow cytometry. (FIG. 4B) Toxicity as determined by CellTiterGlo (Promega) assay. […] Cells were treated with 250 nM protein for 4 hours in serum-free DMEM. Cells were washed and supplanted with full DMEM and incubated for 48 hours.
# Both aurein 1.2-+36 GFP-Cre and citropin 1.3-+36 GFP-Cre were cloned, expressed, and purified as fusion proteins.
# To identify the residues involved in enhancing non-endosomal protein delivery, an alanine scan of the 13 amino acid positions of aurein 1.2 was performed by cloning, expressing, and purifying each alanine mutant of aurein 1.2-+36 GFP-Cre. The resulting fusion proteins were assayed in BSR.LNL.tdTomato reporter cells as described above (Table 2). […] In total, 19 mutants of aurein 1.2 were generated and tested using the Cre recombination assay.
# (§2) Uptake and delivery assays for Cre fusion proteins were performed as previously described. Briefly, proteins were diluted in serum-free DMEM and incubated on the cells in 48-well plates for 4 hours at 37° C. Following incubation, the cells were washed three times with PBS+20 U/mL heparin. The cells were incubated a further 48 hours in serum-containing media prior to trypsinization and analysis by flow cytometry. All flow cytometry were carried out on a BD Fortessa flow cytometer (Becton-Dickinson) using 530/30 nm and 610/20 nm filter sets. Toxicity for aurein 1.2 and citropin 1.3 validation assays was determined using CellTiterGlo assay (Promega) in 96-well plates following manufacturer protocol. Toxicity for alanine scan mutational analysis was determined with LIVE/DEAD fixable far-red dead cell stain (Life Technologies) with 635 nm laser and 670/30 nm filter.
# BSR.LNL.tdTomato cells [2] = experiment: Toxicity of aurein 1.2 variants fused to +36 GFP-Cre; assay type: cell-based, hamster; details: variant fused to +36 GFP-Cre, 250 nM
# Description: as §1
# To identify the residues involved in enhancing non-endosomal protein delivery, an alanine scan of the 13 amino acid positions of aurein 1.2 was performed by cloning, expressing, and purifying each alanine mutant of aurein 1.2-+36 GFP-Cre. The resulting fusion proteins were assayed in BSR.LNL.tdTomato reporter cells as described above (Table 2). Seven positions were moderately to highly intolerant of alanine substitution. Six positions retained >70% of the activity of unmutated aurein 1.2-+36 GFP-Cre (FIG. 4A). […]
# Uptake and delivery assays for Cre fusion proteins were performed as previously described. […] Toxicity for aurein 1.2 and citropin 1.3 validation assays was determined using CellTiterGlo assay (Promega) in 96-well plates following manufacturer protocol. Toxicity for alanine scan mutational analysis was determined with LIVE/DEAD fixable far-red dead cell stain (Life Technologies) with 635 nm laser and 670/30 nm filter.
# BSR.LNL.tdTomato cells [3] = experiment: Primary screen for cytosolic delivery of Cre recombinase (tdTomato, fluorescence image analysis); assay type: cell-based, hamster; details: for level of recombination in primary screen: 250 nM peptide-(+36 GFP)-Cre conjugate; for cells expressing tdTomato (recombined cells): 250 nM protein, 4 h serum-free media, then 48 h, sortase-conjugated peptide or no peptide
# Description: FIG. 2. Primary screen for cytosolic delivery of Cre recombinase in BSR.LNL.tdTomato cells. Initial screen of 20 peptide-(+36 GFP)-Cre conjugated proteins. Cytosolic Cre delivery results in recombination and tdTomato expression. The percentage of tdTomato positive cells was determined by fluorescence image analysis. […] Cells were treated with 250 nM protein for 4 hours in serum-free DMEM. Cells were washed and supplanted with full DMEM and incubated for 48 hours. Error bars represent the standard deviation of three independent biological replicates.
# The ability of each peptide-(+36 GFP)-Cre recombinase fusion when added to culture media to effect recombination was assayed in BSR.LNL.tdTomato cells, a hamster kidney cell line derived from BHK-21 (FIG. 8). Because Cre recombinase must enter the cell, escape endosomes, enter the nucleus, and catalyze recombination to generate tdTomato fluorescence, this assay reflects the availability of active, non-endosomal recombinase enzyme that reaches the nucleus. […] See, e.g., Dijkstra at al. Biochimica et Biophysica Acta (BBA)-Molecular Cell Research 1984, 804, 58.
# The reporter BSR.LNL.tdTomato cells were incubated with 250 nM of each peptide-(+36 GFP)-Cre protein in serum-free media.
# BSR.LNL.tdTomato cells were plated at 10,000 cells per well in black 384-well plates (Aurora Biotechnologies). Cells were treated with Cre fusion proteins diluted in serum-free DMEM 24 hours after plating and incubated for 4 hours at 37° C. Following incubation, the cells were washed three times with PBS+20 U/mL heparin. The cells were incubated a further 48 h in serum-containing media. Cells were fixed in 3% paraformaldehyde and stained with Hoescht 33342 nuclear dye. Images were acquired on an ImageXpress Micro automated microscope (Molecular Devices) using a 4× objective (binning 2, gain 2), with laser- and image-based focusing (offset −130 μm, range ±50 μm, step 25 μm). Images were exposed for 10 ms in the DAPI channel (Hoechst) and 500 ms in the dsRed channel (tdTomato). Image analysis was performed using the cell-scoring module of MetaXpress software (Molecular Devices). All nuclei were detected with a minimum width of 1 pixel, maximum width of 3 pixels, and an intensity of 200 gray levels above background. Positive cells were evaluated for uniform signal in the dsRed channel (minimum width of 5 pixels, maximum width of 30 pixels, intensity >200 gray levels above background, 10 μm minimum stained area). In total, nine images were captured and analyzed per well, and 16 wells were treated with the same fusion protein. The primary screen was completed in biological triplicate.
# [4] = test system: cochlear hair cells and supporting cells of Cre reporter transgenic mice; experiment: In vivo protein delivery of Cre recombinase into mouse neonatal cochleas; details: for cochlear cells survived as compared to +36 GFP-Cre treatment: scala media
# Description: FIGS. 6A-6C. In vivo protein delivery of Cre recombinase into mouse neonatal cochleas. 0.4 μL of 50 μM+36 GFP-Cre or aurein 1.2-+36 GFP-Cre were injected into the scala media. (FIG. 6A) Five days after injection, cochlea were harvested. Inner hair cells (IHC), outer hair cells (OHC) and supporting cells in the sensory epithelium (SE) were imaged for the presence of tdTomato, which is only expressed following Cre-mediated recombination. Hair cells were labeled with antibodies against the hair-cell marker Myo7a. (FIG. 6B) To evaluate cytotoxicity, the number of outer hair cells and inner hair cells were measured by counting DAPI-stained cells. (FIG. 6C) The percentage of tdTomato positive cells, reflecting successful delivery of functional Cre recombinase, was determined by fluorescence imaging.
# To evaluate the ability of aurein 1.2 to increase the efficacy of cationic protein delivery in vivo, proteins were delivered to the inner ear of Cre reporter transgenic mice that express tdTomato upon Cre-mediated recombination. This animal model was chosen due to its confined injection volume, the presence of well-characterized cell types, and the existence of genetic deafness models that would facilitate future studies of protein delivery to treat hearing loss.
# Anesthetized postnatal day 2 (P2) mice were injected with 0.4 μL of 50 μM+36 GFP-Cre or aurein 1.2-+36 GFP-Cre solutions in the scala media to access the cochlear cells. Five days after injection, the cochleas were harvested for immunolabeling of inner ear cell markers and imaging for tdTomato florescence (FIG. 6A). Both the hair cells (Myo7a+) and supporting cells (Myo7a−) were evaluated for td Tomato signal. The total number of hair cells and supporting cells (by DAPI labeling) in the sensory epithelium (SE) was used to determine the relative toxicity of aurein 1.2-+36 GFP-Cre to the baseline treatment of +36 GFP-Cre ([…]).
# P1-2 Gt(ROSA)26Sor^tm14(CAG-tdTomato)Hze mice were used for aurein 1.2-+36-GFP-Cre and +36-GFP-Cre injection. The Rosa26-tdTomato mice were from the Jackson Laboratory. Animals were used under protocols approved by the Massachusetts Eye & Ear Infirmary IACUC committee. Mice were anesthetized by hypothermia on ice. Cochleostomies were performed by making an incision behind the ear to expose the cochlea. Glass micropipettes held by a micromanipulator were used to deliver the complex into the scala media, which allows access to inner ear hair cells. The total delivery volume for every injection was 0.4 μL per cochlea and the release was controlled by a micromanipulator at the speed of 69 nL/min.
# 5 days after injection, the mice were sacrificed and cochlea were harvested by standard protocols. See, e.g., Sage et al. Science 2005, 307, 1114. For immunohistochemistry, antibodies against hair-cell markers (Myo7a) and supporting cells (Sox2) were used following a previously described protocol. To quantify the number of tdTomato positive cells after aurein 1.2-+36-GFP-Cre and +36-GFP-Cre, we counted the total number of inner and outer hair cells in a region spanning 100 μm in the apex, middle, and base turn of the cochlea.
# BSR.LNL.tdTomato cells [5] = experiment: ATP-dependent cell viability assay (CellTiterGlo) 48 h after treatment; assay type: cell-based, hamster; details: for viable cells: 1 μM treatment; for viability: 250 nM recombinant fusion
# Description: FIGS. 3A-3B. Efficacy and toxicity of recombinant expression fusions of aurein 1.2 (“E”) and citropin 1.3 (“U”). (FIG. 3A) Cytosolic Cre delivery results in recombination and tdTomato expression. The percentage of tdTomato positive cells was determined by flow cytometry. Protein fusions were delivered at 125 nM, 250 nM, 500 nM, and 1 μM. (FIG. 3B) Toxicity of aurein 1.2 and citropin 1.3 as determined by CellTiterGlo (Promega) assay. Protein fusions were delivered at 125 nM, 250 nM, 500 nM, and 1 μM. […] Cells were treated with 250 nM protein for 4 hours in serum-free media. Cells were washed and supplanted with full DMEM and incubated for 48 hours. Error bars represent the standard deviation of three independent biological replicates.
# Next, the toxicity of each fusion protein was evaluated at a range of concentrations (125 nM to 1 μM) using an ATP-dependent cell viability assay at 48 h after treatment. […] Applying 1 μM treatments decreased cell viability to 70% and 66%, respectively (FIG. 3B). In light of its activity and low cytotoxicity at 250 nM, the ability of aurein 1.2 to enhance cytosolic protein delivery was characterized in depth.
# as §2
# BSR.LNL.tdTomato cells [6] = experiment: Delivery efficiency of aurein 1.2 in trans with +36 GFP-Cre (Cre recombination, flow cytometry); assay type: cell-based, hamster; details: 125-500 nM +36 GFP-Cre mixed with aurein 1.2 (1-100 μM) or aurein 1.2-+36 GFP (125-500 nM)
# Description: Determining the delivery efficiency of aurein 1.2 in trans with +36 GFP-Cre. 125 nM, 250 nM, or 500 nM+36 GFP-Cre was mixed with either aurein 1.2-+36 GFP (125 nM, 250 nM, 500 nM) or with aurein 1.2 (1 μM, 10 μM, 100 μM), then assayed for Cre-mediated recombination as measured by tdTomato signal during flow cytometry. […] The expressed fusion aurein 1.2-+36 GFP-Cre protein at 125 nM, 250 nM, or 500 nM was used as the positive control.
# To test this possibility, we assayed functional Cre recombinase delivery of +36 GFP-Cre mixed with aurein 1.2, or mixed with aurein 1.2-+36 GFP fusion protein lacking Cre at various concentrations (FIG. 9).
# [7] = middle, 0.4 μL of 50 μM, 5 days
compound,measurement,setting,value
"GLFDIIKKIAEAF [S12A, aurein 1.2 variant, expressed as recombinant fusion protein with +36 GFP-Cre]",overall recombination efficiency versus aurein 1.2,BSR.LNL.tdTomato cells [1],potentially improved
same,toxicity versus aurein 1.2,BSR.LNL.tdTomato cells [2],increased toxicity
GLFDIIKKVASVIGGL [citropin 1.3],level of recombination in primary screen,BSR.LNL.tdTomato cells [3],moderate level of recombination
"GLFDIIKRIAESF [K8R, aurein 1.2 variant, expressed as recombinant fusion protein with +36 GFP-Cre]",overall recombination efficiency versus aurein 1.2,BSR.LNL.tdTomato cells [1],potentially improved
same,toxicity versus aurein 1.2,BSR.LNL.tdTomato cells [2],increased toxicity
"CCN(CC)CCCC(C)Nc1ccnc2cc(Cl)ccc12 (stereo not shown) [chloroquine, reference compound]",recombined cells,BSR.LNL.tdTomato cells [3]; 250 nM +36 GFP-Cre incubated with 100 μM chloroquine (positive control),48%
"+36 GFP-Cre: superpositively charged GFP fused to Cre recombinase, SEQ ID NO: 76; no-peptide control [reference compound]",cells expressing tdTomato (recombined cells),BSR.LNL.tdTomato cells [3],4.5%
same,recombination in middle or base cochlear hair cells or cochlear supporting cells,"[4]; 0.4 μL of 50 μM, 5 days",not in the middle or base of the cochlear hair cells or any cochlear supporting cells
same,"Cre-mediated recombination, inner hair cells (IHC)","[4]; apex, 0.4 μL of 50 μM, 5 days",4.4%
same,viable cells,BSR.LNL.tdTomato cells [5],85%
"citropin 1.3-+36 GFP-Cre: fusion protein of citropin 1.3, +36 GFP and Cre recombinase, SEQ ID NO: 78",recombination signal above that of +36 GFP-Cre,BSR.LNL.tdTomato cells [1],did not induce any enhanced Cre delivery
same,recombination levels higher than that of +36 GFP-Cre alone,BSR.LNL.tdTomato cells [1],3.0 fold
same,viability,BSR.LNL.tdTomato cells [5],84%
same,viable cells,BSR.LNL.tdTomato cells [5],66%
"aurein 1.2-+36 GFP-Cre: fusion protein of aurein 1.2, +36 GFP and Cre recombinase, SEQ ID NO: 77",cells expressing tdTomato (recombined cells),BSR.LNL.tdTomato cells [3],40%
same,recombination signal above that of +36 GFP-Cre,BSR.LNL.tdTomato cells [1],10.4 fold
same,recombination levels higher than that of +36 GFP-Cre alone,BSR.LNL.tdTomato cells [1],3.8 fold
same,"Cre-mediated recombination, inner hair cells (IHC)","[4]; apex, 0.4 μL of 50 μM, 5 days",100%
same,"Cre-mediated recombination, outer hair cells (OHC)","[4]; apex, 0.4 μL of 50 μM, 5 days",96%
same,cochlear cells survived as compared to +36 GFP-Cre treatment,"[4]; apex, 0.4 μL of 50 μM, 5 days",96%
same,"Cre-mediated recombination, inner hair cells (IHC)","[4]; base, 0.4 μL of 50 μM, 5 days",70%
same,"Cre-mediated recombination, outer hair cells (OHC)","[4]; base, 0.4 μL of 50 μM, 5 days",69%
same,cochlear cells survived as compared to +36 GFP-Cre treatment,"[4]; base, 0.4 μL of 50 μM, 5 days",66%
same,"Cre-mediated recombination, inner hair cells (IHC)",[4]; [7],94%
same,"Cre-mediated recombination, outer hair cells (OHC)",[4]; [7],91%
same,cochlear cells survived as compared to +36 GFP-Cre treatment,[4]; [7],92%
same,viability,BSR.LNL.tdTomato cells [5],87%
same,viable cells,BSR.LNL.tdTomato cells [5],70%
GLFDIIKKIAESF [aurein 1.2],level of recombination in primary screen,BSR.LNL.tdTomato cells [3],highest level of recombination
same,potency of Cre delivery into cochlear hair cells when fused with aurein 1.2 versus absence of the peptide,"[4]; live mice, inner ear",> 20 fold
same,effect on functional delivery of +36 GFP-Cre when added in trans,BSR.LNL.tdTomato cells [6],did not affect
